Test results taken from patent publication US9000033B2, “Composition for improving skin condition and appearance” (Arch Personal Care Products, L.P., priority 2008, dated 2015).

Experiments:
[1] = test system: COL1A1 (collagen 1A1 gene); assay: Human gene microarray, Type 1A1 Collagen gene expression in normal human dermal fibroblasts; type: cell-based; conditions: for expression levels of collagen 1A1 gene: an appropriate amount
Procedure: (§1) Normal human dermal fibroblasts were grown in culture flasks until confluent using appropriate culture conditions. […] A separate flask of cells was treated with culture media alone and acted as an untreated control. After applying the test material the cells the cells were incubated for 24 hours at 37±2° C. and 5±1% CO2. At the end of the incubation period the culture media was removed via aspiration and the cells were washed once with cold phosphate buffered saline. After removing the wash the cells they were lysed by adding 700 μl of guanidinium thiocyanate lysis solution. The cell lysate was stored at −75° C. until the RNA extraction process could be completed (see below).
(§2) To the cell lysates prepared above, an equal volume of 64% ethanol was added and the tubes were vortexed. After combining, up to 700 μl of the mixture was transferred to a glass fiber filter cartridge, and the cartridge was loaded into a 1.5 ml collection tube and the cartridge was centrifuged for 1 minute at 14,000 RPM. The flow through was discarded and any remaining mixture was loaded into the filter cartridge and the centrifugation process was repeated until all of the mixture had been processed. The filter was then washed to remove any residual cellular debris from the RNA bound to the glass fibers by subsequently applying 700 μl of wash solution 1 (1 time) and 500 μl of wash solution 2 (2 times) to the filter cartridge and centrifuging at 14,000 RPM for 1 minute to pass each wash through the cartridge. After each wash the flowthrough was discarded. After the final wash one final spin was performed without wash solution to remove any residual wash solution in the filter cartridge. The RNA bound to the glass fibers within the cartridge was eluted by applying 30 μl of Tris-EDTA buffer (10 mM Tris-HCl, 1 mM EDTA, preheated to 70-80° C.) to the cartridge and centrifuging the cartridge in a new collection tube at 14,000 RPM for one minute. The elution process was repeated with an additional 30 μl of preheated TE buffer. After the RNA was eluted its concentration was quantified using a Ribogreen assay.
(§3) mRNA Amplification (Ambion MessageAmnp aRNA kit) First Strand cDNA Synthesis: To start the first strand synthesis, 5 μg of total RNA for each sample was added to 600 μl PCR tubes and the total volume of liquid in the tube was adjusted to 12 μl with DEPC H2O. To each tube, 1 μl of T7 Oligo(dT) primer was added and the tube was incubated at 70±2° C. for 10 minutes to denature the RNA and then placed on ice to allow the primer to anneal to the poly A ends of the mRNA. After cooling 2 μl of 10× first strand buffer, 1 μl of RNAse inhibitor and 4 μl of dNTP Mix were added to each tube, and each tube was placed at 42° C. 1 μl of Reverse Transcriptase was added and the tubes were heated and maintained at 42±2° C. for 2 hours. […]
(§4) Second Strand Synthesis and cDNA Purification: For the synthesis of the second strand of cDNA the following items were added to the tubes above (in this order): 63 μl DEPC H2O, 10 μl 10× second strand buffer, 4 μl dNTP mix, 2 μl DNA Polymerase and 1 μl of RNAse H. The tube was mixed and then incubated at 16±2° C. for 2 hours. Towards the end of the 2 hour incubation a sufficient quantity of DEPC H2O was warmed to 50±2° C. and a cDNA purification filter cartridge was equilibrated with 50 μl of cDNA binding buffer (one cartridge per sample) for at least 5 minutes. […]

ELN (elastin gene) = assay: Human gene microarray, Elastin gene expression in normal human dermal fibroblasts; type: cell-based; conditions: for expression levels of elastin gene: an appropriate amount
Procedure: as §1, §2, §3, §4

[2] = concentration from 0.0001 to 0.05%
[3] = normal human dermal fibroblasts, 0.05%
[4] = normal human dermal fibroblasts, 0.05% pomiferin, 24 hours, fluorescence intensity, Cy5 (treated) channel

SMILES	expression levels of collagen 1A1 gene [1]	expression levels of elastin gene (ELN (elastin gene))	increasing collagen 1A1 gene expression [1, 2]	collagen 1A1 gene expression compared to untreated cells [1, 3]	F635 Median, COL1A1 [1, 4]	increasing elastin gene expression (ELN (elastin gene); [2])	elastin gene expression compared to untreated cells (ELN (elastin gene); [3])	F635 Median, ELN (ELN (elastin gene); [4])
CC(C)=CCc1c2c(c3occ(-c4ccc(O)cc4)c(=O)c3c1O)C=CC(C)(C)O2 [osajin]	significantly increase	significantly increase	–	–	–	–	–	–
CC(C)=CCc1c2c(c3occ(-c4ccc(O)c(O)c4)c(=O)c3c1O)C=CC(C)(C)O2 [pomiferin]	significantly increase	significantly increase	equally effective	statistically significant increase	38576	equally effective	statistically significant increase	3010
